Laboratory results as given in US10111854B2, “Synthesis and use of amine-containing flavonoids as potent anti-leishmanial agents” (The Hong Kong Polytechnic University, priority 2014, dated 2018).

How the values were obtained:
[1] = Cytotoxicity, peritoneal elicited macrophages (PEM); type: cell-based, mouse; settings: mouse, Cytotoxicity IC50, PEM
Method: (§1) Mouse peritoneal elicited macrophages (PEM) were obtained as previously described (2). A round cover slip (12 mm in diameter) was placed into each well of 24-well culture plate. Mouse PEM were resuspended in supplemented DMEM media containing 10% heat inactivated FBS (v/v), 100 U/mL penicillin and 100 μg/mL streptomycin and seeded into each well at a cell density of 1×10^5 cells per 500 μL. Macrophages were allowed to attach overnight. Non-adherent cells were removed by gentle washing with un-supplemented DMEM media twice. Adherent macrophages were infected with late-log promastigotes at a parasite-to-macrophage ratio of 20:1 overnight at 37° C. with 5% CO2. Non-internalized promastigotes were removed by washing twice with un-supplemented DMEM media. Infected macrophages were further incubated in 500 μL of supplemented DMEM media in the presence or absence of FM for 72 hours at 37° C. After incubation, cover slips were stained with Giemsa and the percentage of macrophages infected and number of amastigotes per 100 macrophages was enumerated.
(§2) IC50 values of known antileishmanials and the amine-containing flavonoid monomers of the present invention to promastigotes (L. amazonensis LV78, L major FV1, L. donovani HU3, L. donovani 39), macrophages (Raw 264.7 and PEM) and mouse fibroblast (L929) were determined. The anti-promastigotes activities and cytotoxicity of the amine-containing flavonoid monomers of the invention are shown in Table 1.

[2] = system: L. amazonensis LV78 promastigotes; assay: Anti-promastigote activity (MTS assay), L. amazonensis LV78; type: cell-based; settings: Leishmania amazonensis, 72 hours
Method: (§3) Promastigotes of visceral L. donovani Ld39 and LdHU3, and cutaneous L. amazonensis LV78, L. braziliensis UA847 and L. major FV1 were employed in the study. All strains were cultured in Schneider's Drosophila Medium (Invitrogen), pH 6.9 supplemented with 10% (v/v) heat inactivated fetal bovine serum (Hyclone) with 4 mM glutamine (Sigma) and 25 μg/mL gentamicin solution (Invitrogen) at 27° C. for 4 days. RAW264.7 cells were cultured in supplemented DMEM media with 10% heat inactivated FBS and 100 U/mL penicillin and 100 μg/mL of streptomycin. They were maintained at 37° C. in a humidified atmosphere with 5% CO2. The cells were split constantly after a confluent monolayer has been formed. The cells were harvested by a cell scraper.
(§4) Anti-promastigote activity was determined according to previous procedures (1) by Cell Titer 96® Aqueous Assay (Promega) that employed a tetrazolium compound. Promastigotes were seeded into 96-well flat bottom microtiter plate at 1×10^5 cells per well in a final volume of 100 μL medium and incubated with a series of concentrations of synthetic FM. Parasites were incubated at 27° C. for 72 hours. After 72 hours of incubation, 10 μL of MTS:PMS mixture [MTS:2-(4,5-Dimethylthiazol-2-yl-)-5-[3-(carboxymethoxy)phenyl]-2-(4-sulfophenyl)-2H-tetrazolium); PMS: phenazine methosulfate both purchased from Sigma] was added into each well of microtiter plate. The plate was then incubated at 27° C. for 4 hours for color development. After 4 hours of incubation, the OD values were determined at 490 nm using automatic microtiter plate reader (Bio-Rad).
as §2

[3] = system: L. donovani Ld39 promastigotes; assay: Anti-promastigote activity (MTS assay), L. donovani Ld39; type: cell-based; settings: Leishmania donovani, 72 hours
Method: as §3, §4, §2

[4] = system: L. donovani Ld39 amastigotes (SSG-resistant); assay: Anti-amastigote activity in infected PEM, L. donovani Ld39; type: cell-based; settings: for IC50: Leishmania donovani, 72 h, infected PEM, 3 days, Giemsa, SSG-resistant; for Selective index (a)/(c): IC50 RAW264.7 over IC50 L. donovani Ld39 amastigotes
Method: as §1
(§5) PEM cells were infected with late-log promastigotes (L. amazonensis LV78, L. braziliensis UA847, L. donovani HU3, L. donovani 39) for 24 hr at 37° C. Infected macrophages were then treated with various antileishmanials and incubated for 3 days at 37° C. After 3 days, the cover slips were stained with Giemsa. The number of amastigotes per 100 macrophages were determined and used to calculate IC50 values.

[5] = Cytotoxicity, L929 fibroblasts; type: cell-based, mouse; settings: mouse
Method: as §2

[6] = system: L. major FV1 promastigotes; assay: Anti-promastigote activity (MTS assay), L. major FV1; type: cell-based; settings: Leishmania major, 72 hours
Method: as §3, §4, §2

[7] = system: L. amazonensis LV78 amastigotes; assay: Anti-amastigote activity in infected PEM, L. amazonensis LV78; type: cell-based; settings: for IC50: Leishmania amazonensis, 72 h, infected PEM, 3 days, Giemsa; for Selective index (a)/(b): IC50 RAW264.7 over IC50 L. amazonensis LV78 amastigotes
Method: as §1, §5

[8] = system: L. donovani HU3 amastigotes; assay: Anti-amastigote activity in infected PEM, L. donovani HU3; type: cell-based; settings: for IC50: Leishmania donovani, 72 h, infected PEM, 3 days, Giemsa, SSG-sensitive
Method: as §1, §5

[9] = system: promastigotes (L. amazonensis LV78, L major FV1, L. donovani HU3, L. donovani 39); assay: Anti-promastigote activity, strain not given; type: cell-based; settings: Leishmania amazonensis; strain not specified; read-out: IC50 against promastigotes
Method: as §4, §2

[10] = system: amastigotes (L. amazonensis LV78, L. braziliensis UA847, L. donovani HU3, L. donovani 39); assay: Anti-amastigote activity, strain not given; type: cell-based; settings: strain not specified; visceral and cutaneous Leishmania; read-out: IC50 against amastigotes
Method: as §1, §5

[11] = system: L. donovani HU3 promastigotes; assay: Anti-promastigote activity (MTS assay), L. donovani HU3; type: cell-based; settings: Leishmania donovani, 72 hours
Method: as §3, §4, §2

Row | IC50 [2] [µM] | IC50 [6] [µM] | IC50 [7] [µM] | IC50 [8] [µM] | IC50 [9] [µM] | IC50 [10] [µM] | IC50 [11] [µM] | Structure (SMILES) | IC50 [1] [µM] | IC50 [3] [µM] | Selective index (a)/(c), (a) measured using PEM ([4]; IC50 PEM over IC50 L. donovani Ld39 amastigotes) | IC50 [4] [µM] | IC50 [5] [µM] | Selective index (a)/(b), (a) measured using PEM ([7]; IC50 PEM over IC50 L. amazonensis LV78 amastigotes) | Selective index (a)/(b) ([8]; IC50 RAW264.7 over IC50 L. donovani HU3 amastigotes) | Selective index (a)/(c) [4] | Selective index (a)/(b) [7]
1 | 47.8 ± 18.7 | 22.6 ± 10.9 | 4.5 |  |  |  |  | O=c1cc(-c2ccc(OCCOCCN(CCOCCO)Cc3ccncc3)cc2)oc2ccccc12 [FM21, 2-(4-(2-(2-((2-(2-hydroxyethoxy)ethyl)(pyridin-4-ylmethyl)amino)ethoxy)ethoxy)phenyl)-4H-chromen-4-one] | 58.5 ± 4.3 | 3.4 ± 0.9 | 177 | 0.33 | 24 | 13 |  |  | 
2 | 3.5 ± 1.1 | 5.7 ± 3.1 | 2.5 ± 0.5 | > 10 | < 5 | < 5 | 1.1 ± 0.6 | O=c1cc(-c2ccc(OCC3CCN(Cc4ccncc4)CC3)cc2)oc2ccccc12 [FM13, 2-(4-((1-(pyridin-4-ylmethyl)piperidin-4-yl)methoxy)phenyl)-4H-chromen-4-one] |  | 0.7 ± 0.2 |  | 3.3 | > 100 |  | >10 | >33 | >40
3 | 35.3 ± 4.2 |  | > 10 | > 10 |  |  | 42.4 ± 7.65 | O=c1cc(-c2ccc(OCCOCCN(Cc3ncccn3)Cc3ncccn3)cc2)oc2ccccc12 [FM09d, 2-(4-(2-(2-(bis(pyrimidin-2-ylmethyl)amino)ethoxy)ethoxy)phenyl)-4H-chromen-4-one] | > 100 |  |  |  | > 100 |  |  |  | 
4 |  |  |  |  |  |  |  | NC[C@@H]1O[C@H](O[C@H]2[C@@H](O)[C@H](O[C@@H]3[C@@H](O)[C@H](N)C[C@H](N)[C@H]3O[C@H]3O[C@H](CO)[C@@H](O)[C@H](O)[C@H]3N)O[C@@H]2CO)[C@H](N)[C@@H](O)[C@@H]1O [Paromomycin, reference compound] | > 100 | 24.5 ± 2.4 |  | 41 ± 1.1 |  |  |  |  | 
5 | 2 ± 0.3 | 3.6 ± 0.7 | 4.5 ± 1.8 | > 10 | < 5 | < 5 | 2.2 ± 0.5 | CN(C)CCOCCOc1ccc(-c2cc(=O)c3ccccc3o2)cc1 [FM06, 2-(4-(2-(2-(dimethylamino)ethoxy)ethoxy)phenyl)-4H-chromen-4-one] |  | 1.1 ± 0.1 |  | > 10 | > 33 |  |  |  | 
6 | 8.3 ± 1.9 | 9.5 ± 1.2 | 6.7 ± 1.8 | > 10 | < 5 |  | 1.4 ± 0.4 | O=c1cc(-c2ccc(OCCOCCNCc3ccncc3)cc2)oc2ccccc12 [FM08, 2-(4-(2-(2-((pyridin-4-ylmethyl)amino)ethoxy)ethoxy)phenyl)-4H-chromen-4-one] |  | 2.7 ± 0.9 |  | > 10 | > 33 |  |  |  | 
7 | 57.6 ± 37.3 | 59.8 ± 6.9 |  |  |  |  |  | NCCOCCOc1ccc(-c2cc(=O)c3ccccc3o2)cc1 [FM20, 2-(4-(2-(2-(amino)ethoxy)ethoxy)phenyl)-4H-chromen-4-one] | 57.5 ± 9.2 | 34.9 ± 14.1 |  | 0.7 ± 0.1 | 41.5 ± 15.6 |  |  | 22.6 | 
8 | 0.9 ± 0.3 | 2.1 ± 0.5 | 3.4 ± 0.9 | > 10 | < 5 | < 5 | 0.4 ± 0.1 | O=c1cc(-c2ccc(OCCC3CCCCN3Cc3ccncc3)cc2)oc2ccccc12 (stereo not shown) [FM17, 2-(4-(2-(1-(pyridin-4-ylmethyl)piperidin-2-yl)ethoxy)phenyl)-4H-chromen-4-one] |  | 1.5 ± 0.5 |  | > 10 | > 100 |  |  |  | >29.4
9 | 5.5 ± 1 | 4.9 ± 0.4 | 3.1 ± 0.1 | > 9 | < 5 | < 5 | 1.9 ± 0.4 | O=c1cc(-c2ccc(OC[C@@H]3CCCN3Cc3ccncc3)cc2)oc2ccccc12 [FM18, (S)-2-(4-((1-(pyridin-4-ylmethyl)pyrrolidin-2-yl)methoxy)phenyl)-4H-chromen-4-one] |  | 2.7 ± 0.9 |  | > 10 | 39.1 ± 2.5 |  |  |  | 17.0
